# Assay results taken from PubChem BioAssay AID179 (DTP/NCI, 2004).
# Active and inactive are the calls of the source.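 Rule for the calls: active = compounds giving half or more protection of infected cells from virus-caused growth loss, again on retest; inactive = the rest.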
# System: CEM cells HIV-1 protection, formazan growth assay
# Assay: NCI AIDS Antiviral Assay
# Settings: for IC50: measured here: growth of uninfected CEM cells
# Procedure, shortened: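 Soluble formazan readout of cell growth; CEM cells ± HIV-1; 5 drug concs. ≥50% protection → retest; ≥50% again = moderately active; reproducible 100% = confirmed active.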
Compound,EC50 [µM],IC50 [µM],outcome
COC(=O)C(C(=O)C(=O)Nc1c(Cl)cc([N+](=O)[O-])cc1Cl)c1csc(-n2nc(C3=CCCCC3)cc2-c2ccccc2)n1 (centres undefined),> 107,> 107,–
CC(C)=CCC/C(C)=C/CC/C(C)=C/C(O)c1ccccc1 (centres undefined),> 50.1,> 50.1,–
CC(=O)C1C(c2ccccc2)C2(C)OC(=O)C(C#N)C12C (centres undefined),–,–,inactive
Cc1ccc(S(=O)(=O)SC(SCC(=O)c2ccc(Br)cc2)C(=O)c2ccc(Br)cc2)cc1 (centres undefined),> 40.7,38.9,–
COC1(OC)c2occc2C(=N)c2ccc(=O)oc21,> 200,129,–
Cc1ccn2c(=O)cc(CN3CCOCC3)nc2c1,> 200,> 200,–
S=C(NNc1nc2ccccc2n2cccc12)Nc1ccc(Br)cn1,> 0.2,0.0617,–
S=c1nn[nH]n1-c1ccccc1.[Cd],> 42.7,32.4,–
NC(CCCC(N)P(=O)(O)O)P(=O)(O)O (centres undefined),–,–,inactive
CC(C)C(Sc1nc(-c2ccccc2)c(-c2ccccc2)[nH]1)c1n[nH]c(=S)n1-c1ccccc1 (centres undefined),> 14.8,7.08,–
COc1ccc(NC(=O)C(C)Oc2ccc(OCC3CCCCC3)cc2)cc1 (centres undefined),> 26.3,> 26.3,–
CC12CCC(C(=Nc3cc(C(F)(F)F)cc(C(F)(F)F)c3)C1=O)C2(C)C (centres undefined),> 200,37.2,–
Fc1ccc(F)c(C2SCc3nc4ccccc4n32)c1 (centres undefined),–,–,inactive
CCCCCC(C)(O)C1=NCCN1 (centres undefined),> 200,> 200,–
CN1C(=O)c2c(c3c4ccccc4n(C4OC(CO)C(O)C(O)C4O)c3c3[nH]c4ccccc4c23)C1=O (centres undefined),> 200,3.89,–
COc1ccc(-c2sc(/N=C/c3ccc(N(C)CCC#N)cc3)c(C#N)c2C)cc1OC,> 501,339,–
O=C(/C=C/c1ccc([N+](=O)[O-])cc1)c1nc2ccccc2[nH]1,> 200,4.37,–
N#Cc1c(=O)c2ccccc2n2ccccc12,> 100,> 100,–
Cc1ccccc1NC(=O)C(=O)Cc1cnc2ccccc2n1,> 162,> 162,–

Compound,EC50 [µM],IC50 [µM],outcome
S=c1[nH]ncc(SCc2ccccc2)c1SCc1ccccc1,> 200,13.2,–
O=c1c2cccc3cccc(c4n1CCN=4)c32,> 200,20.9,–
O=C(NC(=Nc1ccccc1)SCCSC(=Nc1ccccc1)NC(=O)c1ccccc1)c1ccccc1,> 18.6,> 18.6,–
Cc1cc(C)c(NC(=O)c2ccccc2)c(=O)o1,> 200,> 200,–
O=P(O)(O)OP(=O)(O)O,182,> 200,–
O=S(=O)(O)c1cc(NC(=S)c2ccc3cccnc3c2O)ccc1/C=C/c1ccc(NC(=S)c2ccc3cccnc3c2O)cc1S(=O)(=O)O,13.8,72.4,–
O=c1[nH]c2ccccc2c(O)c1CCCC1CCCCC1,> 200,132,–
O=C(N/C(=C\c1ccc(/C=C(\NC(=O)c2ccccc2)c2nc3cc(Cl)ccc3[nH]2)cc1)c1nc2cc(Cl)ccc2[nH]1)c1ccccc1,–,–,inactive
CC1(C)C2CCC1(CS(=O)O)C(=O)C2.[Ag] (centres undefined),> 398,7.94,–
CN(Cc1ccccc1)c1cc(=O)n(C)c(=O)[nH]1,> 200,> 200,–
O=C1/C(=C/c2cccc(F)c2)CCc2ccccc21,> 14.8,> 14.8,–
C(=N\NC1=NCCCN1)/c1ccc2ccccc2c1,> 200,8.32,–
COC(=O)[C@@H]1C2OC(C)(C)OC2CN1C(=O)OCc1ccccc1 (some centres undefined),–,–,inactive
Cc1nc2n(c1C(N)=O)CCS2,> 200,> 200,–
COc1c(-c2cccs2)oc2c(CC(=O)O)cccc2c1=O,> 200,91.2,–
Cc1ccc(-n2nncc2[Si](C)(C)C)s1,> 200,148,–
COCOc1c(C(O[Si](C)(C)C(C)(C)C)c2cnc(Sc3ccccc3)n2C)ccc(OC)c1OC (centres undefined),> 200,4.27,–
CCCSc1nn2cc(NC(=O)OC)nc2s1,> 200,2.29,–
